Data reported in article PMC7488486 (Acta Pharmaceutica Sinica. B, 2020).

Key:
dopamine D2 receptors = dopamine D2 receptors (Homo sapiens, UniProt P14416); assay: [35S]GTPγS binding assay in transfected cells, dopamine D2 receptor; type: biochemical
adult male Wistar rats [1] = assay: Scratching and grooming behaviour; type: in vivo; conditions: 10 nmol/rat i.t.
adult male Wistar rats [2] = assay: Tail-flick test, acute pain model, single administration; type: in vivo; conditions: i.t., 10 nmol/rat, mean ± SEM
adult male Wistar rats [3] = test system: adult male Wistar rats
adult male Wistar rats [4] = assay: Rotarod, evaluation of motor impairment; type: in vivo; conditions: 10 nmol/rat i.t., 30 min after administration, cut-off 300 s, n = 6

Sequence of dopamine D2 receptors (P14416 whole entry): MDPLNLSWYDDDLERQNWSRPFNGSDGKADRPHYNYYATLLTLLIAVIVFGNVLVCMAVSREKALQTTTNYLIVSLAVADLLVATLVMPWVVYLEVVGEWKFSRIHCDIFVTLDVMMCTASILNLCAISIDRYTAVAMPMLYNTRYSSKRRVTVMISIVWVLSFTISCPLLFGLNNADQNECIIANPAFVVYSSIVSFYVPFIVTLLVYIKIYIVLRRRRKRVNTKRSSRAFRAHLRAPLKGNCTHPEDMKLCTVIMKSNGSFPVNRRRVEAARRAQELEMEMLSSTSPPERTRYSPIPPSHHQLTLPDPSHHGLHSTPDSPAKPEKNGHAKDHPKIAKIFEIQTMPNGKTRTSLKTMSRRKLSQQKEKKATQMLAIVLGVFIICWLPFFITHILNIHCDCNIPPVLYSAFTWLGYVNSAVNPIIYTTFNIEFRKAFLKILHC

## NCCc1ccc(O)c(O)c1 [Dopamine]
Dopamine D2 receptors; dopamine receptor antagonist domperidone present, unpublished data
  Influence of domperidone on the [35S]GTPγS response: considerably reduced in the presence of domperidone
Dopamine D2 receptors; read-out: Emax, G protein activation at dopamine D2 receptor
  Emax: 141%

## CN1CC[C@]23c4c5ccc(O)c4O[C@H]2[C@@H](O)C=C[C@H]3[C@H]1C5 [Morphine]
Adult male Wistar rats [1]
  Additional behaviours (wet-dog shakes, teeth chattering): wet-dog shakes and teeth chattering
Adult male Wistar rats [1]; day 9, first 30 min post-injection
  Scratching response: strong scratch reflex in rats that weakened over time
Adult male Wistar rats [2]; 15 min post-administration
  MPE (%), tail-flick test: 84.50 ± 3.84%
Adult male Wistar rats [2]; 30 min post-injection
  MPE (%), tail-flick test: 86.23 ± 4.76%
Adult male Wistar rats [3]; i.t., tail-flick test
  Increase in the acute ED50 values after repeated treatment: 3.2 fold
Adult male Wistar rats [3]; rat tail-flick, 30 min post-injection, Day 1, mean (CI 95%)
  ED50 value (nmol, i.t.), Day 1: 2.82 (2.33–3.41) nmol
Adult male Wistar rats [3]; rat tail-flick, repeated daily treatment, Day 3, mean (CI 95%)
  ED50 value (nmol, i.t.), Day 3: 9.03 (7.03–11.61) nmol
Adult male Wistar rats [4]
  Latency to fall, Rotarod: 222.33 ± 8.44 s
